Test results published in patent publication US20070178152A1, “Carboxyalkylcellulose esters for administration of poorly soluble pharmaceutically active agents” (priority 2005, published 2007).
“And” between values parts separate entries of the source, which are not always exact repeats. Equal entries are not always repeated.

Test: Dissolution of glyburide and glyburide solid dispersions in SIFsp, pH 6.8
Assay type: physicochemical
Set-up: drug released per capsule, Table 18C (quantity not headed): unit not given here
Details: for % Drug Released / Total Drug Released / Normalized Drug Released / drug released per capsule, Table 18C (quantity not headed): gelatin capsule
Procedure: All dissolution studies were performed on a Varian VK7025 Dissolution Apparatus equipped with a Varian VK8000 Fraction Collector
HPLC Methods for Evaluating Dissolution Aliquots:
Determination of Weight % Phenytoin, Carbamazepine, Glyburide, or Griseofulvin.
Mobile Phase: 55% acetonitrile/45% ammonium acetate buffer (2.6 g NH4OAc/L H2O with pH adjusted to pH˜5.25 with glacial acetic acid)
Column: Agilent Eclipse XDB-C8, 4.6 mm×150 mm×5 μm
Detection: UV 254 nm (UV 214 nm can also be used for phenytoin or carbamazepine, UV 291 nm can also be used for griseofulvin); typically five signals were selected from UV 214 nm, 222 nm, 254 nm, 287 nm, 291 nm, and/or 325 nm were collected for each sample.
Preparation of Glyburide Standard Curves
Glyburide reference standard from USP was dried as directed (106° C. for six hours), then approximately 20-25 mg of glyburide are added to a 25-mL volumetric flask and dissolved in DMSO or 55% acetonitrile/45% ammonium acetate, pH 5.25. The volume was diluted to 25 mL. A set of standard dilutions were prepared either using 10-mL volumetric flasks or Rainin automatic pipetmen.
Simulated Intestinal Fluid, without pancreatin, pH 6.8 (SIFsp, pH 6.8)—Added monobasic potassium phosphate (KH2PO4, 34 g) to a 4000-mL beaker. Added deionized/polished water (2000 mL) and mixed using a magnetic stir bar until the KH2PO4 is completely dissolved. Added 0.2 N sodium hydroxide (NaOH, 590 mL) and stirred. The pH was adjusted to pH 6.8±0.1 using 0.2 N NaOH. The sample was diluted with deionized/polished water to a final volume of 5000 mL.
The SIFsp media was heated to ˜45° C. in four 2000-mL Kimax bottles in an oven. The sample was degassed according to USP protocol by filtering through a 0.45 μm membrane filter (Pall, Supor-450, 0.45 μm, 90 mm, part # 60200, Lot # 43214) and stirring under vacuum for 5 minutes.
Dissolution Conditions #1.
Dissolution Conditions #2.
These Examples describe the dissolution of glyburide and glyburide solid Dispersions by evaluating the samples described in Examples 109-117. SlFsp, pH 6.8 media preperation was described in the Materials and Methods section.
Samples were transferred into gelatin capsules (Capsugel, size OCS, Lot #624282) using a manual single capsule filler. The weight of each capsule and the amount of sample added are found in Table 18 (Capsule Description).
These Examples describe the dissolution of glyburide and glyburide solid dispersions by evaluating the samples described in Examples 119-124. SIFsp, pH 6.8 media preperation was described in the Materials and Methods section.
Samples were transferred into gelatin capsules (Capsugel, size OCS, Lot # 624282) using a manual single capsule filler. The weight of each capsule and the amount of sample added are found in Tables 19 and 20 (Capsule Description).

Structure (SMILES): COc1ccc(Cl)cc1C(=O)NCCc1ccc(S(=O)(=O)NC(=O)NC2CCCCC2)cc1 [Glyburide]
- Average % Released (10 min, average of capsules): 0.1549%
- Average % Released (10 min, average of vessels): 0.0373%
- % Drug Released (10 min, single vessel): 0.0362% and 0.0355% and 0.0403%
- Total Drug Released (15 min, single vessel): 0.0321 mg
- Average % Released (20 min, average of capsules): 1.0081%
- Average % Released (20 min, average of vessels): 0.2490%
- Normalized Drug Released (20 min): 0.7201 mg and 0.7299 mg
- drug released per capsule, Table 18C (quantity not headed) (20 min): 1.0149 and 1.0013
- % Drug Released (20 min, single vessel): 0.0355% and 0.2912% and 0.4202%
- Average % Released (30 min, average of capsules): 1.2315%
- Average % Released (30 min, average of vessels): 0.4372%
- Normalized Drug Released (30 min): 0.8728 mg and 0.8986 mg
- drug released per capsule, Table 18C (quantity not headed) (30 min): 1.2495 and 1.2136
- % Drug Released (30 min, single vessel): 0.4237% and 0.4293% and 0.4587%
- Total Drug Released (45 min, single vessel): 0.3834 mg and 0.3424 mg and 0.4071 mg
- Average % Released (60 min, average of capsules): 1.7763%
- Average % Released (60 min, average of vessels): 0.5522%
- Normalized Drug Released (60 min): 1.2890 mg and 1.2660 mg
- drug released per capsule, Table 18C (quantity not headed) (60 min): 1.7923 and 1.7603
- % Drug Released (60 min, single vessel): 0.4365% and 0.5720% and 0.6480%
- Total Drug Released (60 min, single vessel): 0.3950 mg and 0.4562 mg and 0.5752 mg
- Total Drug Released (90 min, single vessel): 0.6124 mg and 0.6166 mg and 0.7677 mg
- Average % Released (120 min, average of capsules): 2.1001%
- Average % Released (120 min, average of vessels): 0.7716%
- Normalized Drug Released (120 min): 1.5740 mg and 1.4468 mg
- drug released per capsule, Table 18C (quantity not headed) (120 min): 2.1886 and 2.0117
- % Drug Released (120 min, single vessel): 0.6767% and 0.7732% and 0.8649%
- Total Drug Released (120 min, single vessel): 0.7134 mg and 0.7222 mg and 0.8356 mg
- Total Drug Released (150 min, single vessel): 0.8270 mg and 0.8369 mg and 0.9711 mg
- Average % Released (180 min, average of capsules): 2.2533%
- Average % Released (180 min, average of vessels): 0.8784%
- Normalized Drug Released (180 min): 1.6724 mg and 1.5688 mg
- drug released per capsule, Table 18C (quantity not headed) (180 min): 2.3253 and 2.1813
- % Drug Released (180 min, single vessel): 0.7882% and 0.9056% and 0.9414%
- Total Drug Released (180 min, single vessel): 0.8919 mg and 0.9402 mg and 0.9572 mg
- Total Drug Released (210 min, single vessel): 0.9428 mg and 0.9956 mg and 1.4143 mg
- Average % Released (240 min, average of capsules): 2.3376%
- Average % Released (240 min, average of vessels): 1.0191%
- Normalized Drug Released (240 min): 1.7153 mg and 1.6471 mg
- Total Drug Released (240 min): 0.1934 mg and 0.1252 mg
- drug released per capsule, Table 18C (quantity not headed) (240 min): 2.3850 and 2.2902
- % Drug Released (240 min, single vessel): 0.9138% and 1.0495% and 1.0941%
- Total Drug Released (240 min, single vessel): 1.0358 mg and 1.0726 mg and 1.2243 mg
- Average % Released (300 min, average of capsules): 2.4335%
- Average % Released (300 min, average of vessels): 1.0810%
- Normalized Drug Released (300 min): 1.7802 mg and 1.7202 mg
- Total Drug Released (300 min): 0.2583 mg and 0.1982 mg
- drug released per capsule, Table 18C (quantity not headed) (300 min): 2.4752 and 2.3918
- % Drug Released (300 min, single vessel): 0.9855% and 1.1790% and 1.0784%
- Average % Released (360 min, average of capsules): 2.5067%
- Average % Released (360 min, average of vessels): 1.2945%
- Normalized Drug Released (360 min): 1.8465 mg and 1.7592 mg
- Total Drug Released (360 min): 0.3246 mg and 0.2373 mg
- drug released per capsule, Table 18C (quantity not headed) (360 min): 2.5674 and 2.4461
- % Drug Released (360 min, single vessel): 1.0417% and 1.2484% and 1.5934%
- Average % Released (450 min, average of capsules): 2.5617%
- Average % Released (450 min, average of vessels): 1.2896%
- Normalized Drug Released (450 min): 1.8424 mg
- Total Drug Released (450 min): 0.3205 mg
- drug released per capsule, Table 18C (quantity not headed) (450 min): 2.5617
- % Drug Released (450 min, single vessel): 1.1444% and 1.3449% and 1.3793%
